Assay results from the Deep4Chem optical property database.

Experiment: photoluminescence quantum yield (fraction); solvent given as SMILES

CCC1=C(C)C2=C(c3c(C)cc(C)nc3-c3cccs3)c3c(C)c(CC)c(C)n3[B-](F)(F)[N+]2=C1C
photoluminescence quantum yield (in C1CCCCC1): 0.53
photoluminescence quantum yield (in C1CCOC1): 0.46
photoluminescence quantum yield (in C1COCCO1): 0.49
photoluminescence quantum yield (in CC#N): 0.45
photoluminescence quantum yield (in CCCCCC): 0.52
photoluminescence quantum yield (in CCO): 0.47
photoluminescence quantum yield (in CCOC(C)=O): 0.47
photoluminescence quantum yield (in CCOCC): 0.5
photoluminescence quantum yield (in CN(C)C=O): 0.44
photoluminescence quantum yield (in CS(C)=O): 0.44
photoluminescence quantum yield (in Cc1ccccc1): 0.49
photoluminescence quantum yield (in ClC(Cl)(Cl)Cl): 0.5
photoluminescence quantum yield (in ClC(Cl)Cl): 0.49

CC(C)(C)c1cc2c(c(C(C)(C)C)c1)O[B-](F)(F)[n+]1c-2nc(-c2ccccc2)c2cc(Cl)ccc21
photoluminescence quantum yield (in Cc1ccccc1): 0.001

CCCCNc1ccc2n1[B-](F)(F)[N+]1=CC(/C=C/C(=O)OC(C)(C)C)=CC1=C2c1c(C)cc(C)cc1C
photoluminescence quantum yield (in ClCCl): 0.59

Cc1ccc(N(c2ccc(C)cc2)c2cc(N(c3ccc(C)cc3)c3ccc(C)cc3)c3ccc4cc(C(C)(C)C)cc5ccc2c3c54)cc1
photoluminescence quantum yield (in ClCCl): 0.78

O=C(c1ccncc1)c1ccc(-n2c3ccccc3c3ccccc32)cc1
photoluminescence quantum yield (in Cc1ccccc1): 0.012
photoluminescence quantum yield (in c1cc(-c2cccc(-n3c4ccccc4c4ccccc43)c2)cc(-n2c3ccccc3c3ccccc32)c1): 0.38

C[Si]1(C)c2ccc(-c3ccc(N(c4ccccc4)c4ccccc4)cc3)cc2C=Cc2cc(-c3ccc(N(c4ccccc4)c4ccccc4)cc3)ccc21
photoluminescence quantum yield (in ClCCl): 0.43

CC1=CC(C)=[N+]2C1=C(c1c(-c3ccccn3)nc3ccccn13)c1c(C)cc(C)n1[B-]2(F)F
photoluminescence quantum yield (in ClCCl): 0.635

CC(C)[Si](C#Cc1c2ccccc2c(C#C[Si](C(C)C)(C(C)C)C(C)C)c2nc3cc4c(cc3nc12)C1c2ccccc2C4c2ccccc21)(C(C)C)C(C)C
photoluminescence quantum yield (in CCCCCC): 0.57
photoluminescence quantum yield (in ClCCl): 0.76

Cc1cc2nc3[nH]c(=O)[nH]c(=O)c3nc2cc1C
photoluminescence quantum yield (in CC#N): 0.028

CCCCCOc1cc2oc(=O)c3c4ccc(N(c5ccccc5)c5ccccc5)cc4c4ccc5cccc6c(c1)c2c3c4c56
photoluminescence quantum yield (in C1CCOC1): 0.752

CCCCCCN(CCCCCC)c1ccc(C#Cc2ccc(/C=C/c3ccc(-c4ccc(/C=C/c5ccc(C#Cc6ccc(N(CCCCCC)CCCCCC)cc6)cc5)cc4)cc3)cc2)cc1
photoluminescence quantum yield (in Cc1ccccc1): 0.8

COc1ccc(-c2nc(-c3ccc(OC)cc3)c(-c3ccc(OC)cc3)[nH]2)cc1
photoluminescence quantum yield (in CO): 0.2

Cc1cc(O)c(C(=O)/C=C/c2ccc(N(C)C)cc2)c(=O)o1
photoluminescence quantum yield (in CC#N): 0.018
photoluminescence quantum yield (in ClCCl): 0.538

F[B-]1(F)n2c(c(-c3cccs3)c3c2-c2ccccc2CC3)C=C2C(c3cccs3)=C3CCc4ccccc4C3=[N+]21
photoluminescence quantum yield (in CC#N): 0.84

CCOC(=O)c1c2c3c(ccc(Br)c3c3cc4ccccc4cc13)N(C)C2=O
photoluminescence quantum yield (in CC#N): 0.45

Cc1cccc(-c2c3ccccc3cc3ccccc23)n1
photoluminescence quantum yield (in ClCCl): 0.48

COc1c(/C=N/Nc2ccc(C#N)cc2)ccc2ccccc12
photoluminescence quantum yield (in CO): 0.16

c1ccc2c(c1)CCc1c-2cnc2c1-c1ccccc1CC2
photoluminescence quantum yield (in C1CCOC1): 0.665
photoluminescence quantum yield (in CC#N): 0.69
photoluminescence quantum yield (in CCCCCC): 0.149
photoluminescence quantum yield (in CCOC(C)=O): 0.567
photoluminescence quantum yield (in CO): 0.141
photoluminescence quantum yield (in CS(C)=O): 0.227
photoluminescence quantum yield (in Cc1ccccc1): 0.513
photoluminescence quantum yield (in ClCCl): 0.291

CCn1c(-c2ccc(-c3ccc4c(c3)C(C)(C)c3ccccc3-4)cc2)c(-c2ccc3ccccc3c2)c(-c2ccc3ccccc3c2)c1-c1ccc(-c2ccc3c(c2)C(C)(C)c2ccccc2-3)cc1
photoluminescence quantum yield (in CCOC(C)=O): 0.99

CC1=C(c2ccccc2)Oc2cc3nc4ccccc4nc3c3cccc1c23
photoluminescence quantum yield (in ClCCl): 0.45

O=c1oc2ccccc2cc1-c1ccc(-c2ccc(-c3cc4ccccc4oc3=O)cc2)cc1
photoluminescence quantum yield (in ClCCl): 0.49

CCCC1=Cc2nc1ccc1[nH]c(cc1CCC)c1nc(c(OC(=O)CCCC(=O)OC(C)(C)C)cc3[nH]c2cc3CCC)C(CCC)=C1
photoluminescence quantum yield (in Cc1ccccc1): 0.21

Oc1ccc2ncccc2c1
photoluminescence quantum yield (in CC#N): 0.088
photoluminescence quantum yield (in CCCC#N): 0.086
photoluminescence quantum yield (in CO): 0.107
photoluminescence quantum yield (in Cc1ccccc1): 0.008
photoluminescence quantum yield (in ClCCl): 0.043

CCCCCCCCOc1ccc(C2=C(c3ccc(OCCCCCCCC)cc3)C(C)(C)c3ccccc32)cc1
photoluminescence quantum yield (in C1CCCCC1): 0.11

CCCCCCCCCCCCn1cccc1/C=C/c1ccc(/C=C/c2cccn2CCCCCCCCCCCC)cc1
photoluminescence quantum yield (in Cc1ccccc1): 0.32

CCC1=C(C)C(=O)n2c1cc1c(CCC(=O)O)c(C)c(C)n1c2=O
photoluminescence quantum yield (in CO): 0.95
photoluminescence quantum yield (in CS(C)=O): 1
photoluminescence quantum yield (in ClC(Cl)Cl): 1
photoluminescence quantum yield (in c1ccccc1): 0.84

CN(C)c1cc(-c2ccc(C#Cc3ccccc3)cc2)cc2ccccc12
photoluminescence quantum yield (in ClCCl): 0.7

COc1ccc(-c2cc(/C=C/c3ccc(N(c4ccccc4)c4ccccc4)cc3)c(C#N)c(N3CCCCC3)c2)cc1
photoluminescence quantum yield (in CS(C)=O): 0.57

C(=C(c1ccccc1)c1ccccc1)c1ccc(-c2ccc(-c3nc4c5ccccc5c5ccccc5c4n3-c3cccc(-c4ccc(C=C(c5ccccc5)c5ccccc5)cc4)c3)cc2)cc1
photoluminescence quantum yield (in C1CCOC1): 0.145

CCN(CC)c1ccc2c(c1)oc(=O)c1cc3cnn(-c4ccccc4)c3nc12
photoluminescence quantum yield (in C1CCCCC1): 0.717
photoluminescence quantum yield (in CCOC(C)=O): 0.233
photoluminescence quantum yield (in CN(C)C=O): 0.023
photoluminescence quantum yield (in CO): 0.002
photoluminescence quantum yield (in ClCCl): 0.325

COc1ccc(-c2nc(-c3ccccc3)c(-c3ccccc3)[nH]2)cc1
photoluminescence quantum yield (in CO): 0.18

CC(=O)Nc1cccc2c1C#Cc1c(cccc1C(=O)N(C)C)OCCCO2
photoluminescence quantum yield (in CC#N): 0.005
photoluminescence quantum yield (in ClCCl): 0.012

Cc1ccccc1[B-]1(c2ccccc2C)n2nc(C(F)(F)F)cc2-c2c3ccccc3cc[n+]21
photoluminescence quantum yield (in C1CCCCC1): 0.0285
photoluminescence quantum yield (in Cc1ccccc1): 0.0259
photoluminescence quantum yield (in ClCCl): 0.0197

CCOC(=O)COc1ccc(/C=C/c2cc(C)c3n2[B-](F)(F)[N+]2=C(c4[nH]c(C)cc4C)c4ccccc4C2=C3)cc1
photoluminescence quantum yield (in C1CCOC1): 0.34
photoluminescence quantum yield (in CC#N): 0.3
photoluminescence quantum yield (in CCCCCC): 0.73
photoluminescence quantum yield (in CO): 0.08
photoluminescence quantum yield (in Cc1ccccc1): 0.69
photoluminescence quantum yield (in ClCCl): 0.75

CN(C)c1ccc(C#Cc2ccc3ccc(=O)oc3c2)cc1
photoluminescence quantum yield (in CC#N): 0.009

CC1(C)OB(c2cc3ccc4cccc5ccc(c2)c3c45)OC1(C)C
photoluminescence quantum yield (in Cc1ccccc1): 0.72

CC1=CC(/C=C/c2ccc(OCCCN=[N+]=[N-])cc2)=[N+]2C1=C(c1ccc(N3CCCCC3)cc1)c1c(C)cc(C)n1[B-]2(F)F
photoluminescence quantum yield (in CO): 0.81

O=Cc1cc(C=O)c2ccc3c(N4CCCCC4)cc(N4CCCCC4)c4ccc1c2c43
photoluminescence quantum yield (in C1COCCO1): 0.92
photoluminescence quantum yield (in CC#N): 0.88
photoluminescence quantum yield (in CC(C)=O): 0.9
photoluminescence quantum yield (in CCCCCC): 0.93
photoluminescence quantum yield (in CCO): 0.87
photoluminescence quantum yield (in CCOC(C)=O): 0.93
photoluminescence quantum yield (in CO): 0.83
photoluminescence quantum yield (in CS(C)=O): 0.75
photoluminescence quantum yield (in Cc1ccccc1): 0.94
photoluminescence quantum yield (in ClCCl): 0.91

O=C1c2cc(F)ccc2-c2cnccc21
photoluminescence quantum yield (in CC#N): 0.015
photoluminescence quantum yield (in CCCCCC): 0.0017
photoluminescence quantum yield (in CCOC(C)=O): 0.02
photoluminescence quantum yield (in Cc1ccccc1): 0.012
photoluminescence quantum yield (in ClCCl): 0.018

CC1=C(c2ccccc2)C(C)=[N+]2C1=C(c1c(-c3ccccn3)nc3ccccn13)c1c(C)cc(C)n1[B-]2(F)F
photoluminescence quantum yield (in ClCCl): 0.739

C[Si](C)(C)c1ccc(-c2ccc(-c3ccc(-c4ccc(-c5ccc([Si](C)(C)C)s5)cc4)c4nsnc34)cc2)s1
photoluminescence quantum yield (in C1CCOC1): 0.73

COc1ccc(C2=[N+]3C(=Nc4c(C)cc(-c5ccc(OC)cc5)n4[B-]3(F)F)C(C)=C2)cc1
photoluminescence quantum yield (in CS(C)=O): 0.44
